Data taken from the NIST ThermoML archive (doi:10.1016/j.jct.2018.10.006).

Test: molar heat capacity at constant pressure
Settings: 101.33 kPa, Crystal 2

O=P([O-])([O-])[O-].[Cs+].[Ni+2] [cesium nickel monophosphate]
Settings | molar heat capacity at constant pressure [J/K/mol]
160 K, Small (less than 1 g) adiabatic calorimetry | 103.68
162.35 K, Small (less than 1 g) adiabatic calorimetry | 104.76
165.65 K, Small (less than 1 g) adiabatic calorimetry | 106.01
168.95 K, Small (less than 1 g) adiabatic calorimetry | 107.84
170 K, Small (less than 1 g) adiabatic calorimetry | 107.84
172.25 K, Small (less than 1 g) adiabatic calorimetry | 108.75
175.54 K, Small (less than 1 g) adiabatic calorimetry | 109.83
178.83 K, Small (less than 1 g) adiabatic calorimetry | 111.5
180 K, Small (less than 1 g) adiabatic calorimetry | 111.83
182.12 K, Small (less than 1 g) adiabatic calorimetry | 112.83
185.4 K, Small (less than 1 g) adiabatic calorimetry | 113.82
188.67 K, Small (less than 1 g) adiabatic calorimetry | 115.24
190 K, Small (less than 1 g) adiabatic calorimetry | 115.4
191.94 K, Small (less than 1 g) adiabatic calorimetry | 116.32
195.21 K, Small (less than 1 g) adiabatic calorimetry | 116.98
198.48 K, Small (less than 1 g) adiabatic calorimetry | 118.07
200 K, Small (less than 1 g) adiabatic calorimetry | 118.73
201.74 K, Small (less than 1 g) adiabatic calorimetry | 119.56
205 K, Small (less than 1 g) adiabatic calorimetry | 120.14
208.27 K, Small (less than 1 g) adiabatic calorimetry | 121.06
210 K, Small (less than 1 g) adiabatic calorimetry | 121.64
211.53 K, Small (less than 1 g) adiabatic calorimetry | 122.14
214.79 K, Small (less than 1 g) adiabatic calorimetry | 122.56
218.05 K, Small (less than 1 g) adiabatic calorimetry | 123.64
220 K, Small (less than 1 g) adiabatic calorimetry | 124.38
221.32 K, Small (less than 1 g) adiabatic calorimetry | 124.22
224.58 K, Small (less than 1 g) adiabatic calorimetry | 125.63
227.84 K, Small (less than 1 g) adiabatic calorimetry | 126.38
230 K, Small (less than 1 g) adiabatic calorimetry | 126.88
231.11 K, Small (less than 1 g) adiabatic calorimetry | 127.13
234.38 K, Small (less than 1 g) adiabatic calorimetry | 128.21
237.64 K, Small (less than 1 g) adiabatic calorimetry | 129.12
240 K, Small (less than 1 g) adiabatic calorimetry | 129.37
240.88 K, Small (less than 1 g) adiabatic calorimetry | 129.62
244.15 K, Small (less than 1 g) adiabatic calorimetry | 130.7
247.41 K, Small (less than 1 g) adiabatic calorimetry | 131.53
250 K, Small (less than 1 g) adiabatic calorimetry | 132.03
250.68 K, Small (less than 1 g) adiabatic calorimetry | 132.28
253.95 K, Small (less than 1 g) adiabatic calorimetry | 133.03
257.21 K, Small (less than 1 g) adiabatic calorimetry | 133.7
260 K, Small (less than 1 g) adiabatic calorimetry | 134.94
260.47 K, Small (less than 1 g) adiabatic calorimetry | 135.11
263.74 K, Small (less than 1 g) adiabatic calorimetry | 135.94
266.99 K, Small (less than 1 g) adiabatic calorimetry | 137.19
270 K, Small (less than 1 g) adiabatic calorimetry | 138.19
270.25 K, Small (less than 1 g) adiabatic calorimetry | 138.69
273.15 K, Small (less than 1 g) adiabatic calorimetry | 139.27
273.51 K, Small (less than 1 g) adiabatic calorimetry | 139.52
276.77 K, Small (less than 1 g) adiabatic calorimetry | 140.43
280 K, Small (less than 1 g) adiabatic calorimetry | 141.68
280.02 K, Small (less than 1 g) adiabatic calorimetry | 141.6
283.26 K, Small (less than 1 g) adiabatic calorimetry | 142.68
286.51 K, Small (less than 1 g) adiabatic calorimetry | 143.84
289.74 K, Small (less than 1 g) adiabatic calorimetry | 145
290 K, Small (less than 1 g) adiabatic calorimetry | 145.42
292.94 K, Small (less than 1 g) adiabatic calorimetry | 146.5
296.16 K, Small (less than 1 g) adiabatic calorimetry | 147.25
298.15 K, Small (less than 1 g) adiabatic calorimetry | 148.41
299.38 K, Small (less than 1 g) adiabatic calorimetry | 148.58
300 K, Small (less than 1 g) adiabatic calorimetry | 149.08
302.59 K, Small (less than 1 g) adiabatic calorimetry | 150.41
305.8 K, Small (less than 1 g) adiabatic calorimetry | 151.41
309.01 K, Small (less than 1 g) adiabatic calorimetry | 152.57
310 K, Small (less than 1 g) adiabatic calorimetry | 152.65
312.23 K, Small (less than 1 g) adiabatic calorimetry | 153.82
315.44 K, Small (less than 1 g) adiabatic calorimetry | 154.82
318.66 K, Small (less than 1 g) adiabatic calorimetry | 155.48
320 K, Small (less than 1 g) adiabatic calorimetry | 155.9
320.8 K, DSC | 155.48
321.8 K, DSC | 156.31
321.9 K, Small (less than 1 g) adiabatic calorimetry | 156.23
322.8 K, DSC | 156.31
323.8 K, DSC | 156.31
324.8 K, DSC | 157.14
325.15 K, Small (less than 1 g) adiabatic calorimetry | 157.39
325.8 K, DSC | 157.14
326.8 K, DSC | 157.97
327.8 K, DSC | 157.97
328.41 K, Small (less than 1 g) adiabatic calorimetry | 158.22
328.8 K, DSC | 158.81
329.8 K, DSC | 158.81
330 K, Small (less than 1 g) adiabatic calorimetry | 158.89
330.8 K, DSC | 159.64
331.69 K, Small (less than 1 g) adiabatic calorimetry | 159.39
331.8 K, DSC | 159.64
332.8 K, DSC | 159.64
333.8 K, DSC | 160.47
334.8 K, DSC | 160.47
334.97 K, Small (less than 1 g) adiabatic calorimetry | 160.3
335.8 K, DSC | 161.3
336.8 K, DSC | 161.3
337.8 K, DSC | 161.3
338.28 K, Small (less than 1 g) adiabatic calorimetry | 161.22
338.8 K, DSC | 162.13
339.8 K, DSC | 162.13
340 K, Small (less than 1 g) adiabatic calorimetry | 161.97
340.8 K, DSC | 162.13
341.58 K, Small (less than 1 g) adiabatic calorimetry | 162.8
341.8 K, DSC | 162.96
342.8 K, DSC | 162.96
343.8 K, DSC | 162.96
